Values quoted from earlier work in patent US20040067887A1, “Human VNO receptor (R1)” (priority 2000, published 2004).

Tests used:
[1] = tested on: human brain; settings: human volunteers; delivered non-specifically to the nasal cavity; no detectable odor (Sobel et al. 1999)
[2] = tested on: human VNO; settings: for physiological responses after administration to the human VNO: administered to the human VNO

| SMILES | activation of brain regions detected by fMRI [1] | site specificity of physiological responses in vivo ([2]; human subjects, VNO versus olfactory or respiratory epithelium (Monti-Bloch et al. 1994)) | physiological responses after administration to the human VNO [2] |
| --- | --- | --- | --- |
| CC(=O)Oc1ccc2c(c1)CC[C@@H]1[C@@H]2CC[C@]2(C)C=CC[C@@H]12 [PH15, estra-1,3,5(10),16-tetraen-3yl acetate] | dose-dependent activation of the anterior medial thalamus, the inferior frontal gyrus, and other regions of the human brain | induces physiological responses in vivo only when applied specifically to the VNO | – |
| C[C@@]12C=CC[C@H]1[C@@H]1CCc3cc(O)ccc3[C@H]1CC2 [estra-1,3,5(10),16-tetraen-3-ol] | – | – | induce bradycardia, bradypnea, increases in core body temperature, and other physiological responses |
| C[C@@]12C=CC[C@H]1[C@@H]1CCC3=CC(=O)CC[C@]3(C)[C@H]1CC2 [androsta-4,16-dien-3-one] | – | – | induce bradycardia, bradypnea, increases in core body temperature, and other physiological responses |
